# Assays:
# [1] = test system: HepG2, HCT-116, Hela, A549, MCF7, MKN45, THP-1, Huh7, and 293 cells; experiment: Cytotoxicity test, MTT assay, summary over the nine kinds of cells; assay type: cell-based; settings: 72h
# Protocol: […]. Various cells in the logarithmic growth phase were seeded in 96-well plates at 6,000 cells/well and cultured for 24h. […]. The dosage of DMSO in the solvent control group was based on the maximum dose of 0.1% used in the test group, with four duplicate wells for each concentration. Cells were treated with the drug for 72h and then added with 20µL 5 mg/mL MTT, cultured at 37°C for 4h, after added 100 µ L triple solution (10% SDS, 5% isobutanol, 12 mM hydrochloric acid), 96-well cell culture plate was placed in an incubator containing 5% CO2 at 37 ± 1°C overnight. OD value at 570nm was measured on a microplate reader.
# The inhibition rate of tumor cell growth was calculated according to the following formula: Inhibition rate(%) = [(OD570controlwell−OD570dosewell)/OD570controlwell] × 100. [formula]
# hepatitis B virus [2] = experiment: HBV transgenic mouse model, serum HBsAg by ELISA; assay type: in vivo, male C57BL/6-HBV transgenic mice; settings: 48 mg/kg intragastric once daily for 35 days, Figure 18
# Protocol: Ten male C57BL/6-HBV transgenic mice (provided by Beijing Vitalstar Biotechnology Co., Ltd.) aged six weeks were randomly divided into two groups (control group, n=5; administration group, n=5).
# Route of administration: Intragastric administration, 1mL sterile syringe was used for administration.
# Dosing frequency: The drug was administered once daily for 35 consecutive days, with free access to food and water.
# Dose-volume: 10 mL/kg. The dose-volume for each animal was determined based on the most recent body weight before administration.
# The serum was separated and diluted 5000 times with PBS, respectively. The ELISA kit detected the concentration of HBV surface antigen (HBsAg). The OD value at 450 nm was measured on a microplate reader.
# The inhibition rate was calculated according to the following formula: Inhibition rate = [(OD450controlwell−OD450dosewell)/OD450 control; well] × 100% [formula]
# [3] = test system: alanine aminotransferase (ALT); experiment: Mouse venous hypertension model (genotype A), serum alanine aminotransferase (ALT) activity, colorimetric kit; settings: 25-200 mg/day (converted adult dose), once a day oral gavage, Figure 16
# Protocol: (§1) Six-week-old male C57 mice were rapidly injected with 10µg/mouse of viral genomic DNA (genotype A) by tail vein injection in a short period. Viral infection was established using a venous hypertension model and randomly divided into groups. […] At the same time, a blank control was set up, and oral administration in uninfected mice was equivalent to the model group.
# On days 1, 3, and 7 of administration, an appropriate amount of blood was collected from the tail vein of mice in each group. On day 9, the remaining peripheral blood was collected after the mice were sacrificed. All blood samples were centrifuged to obtain serum, divided into two portions. One was used to detect the concentration of HBsAg by ELISA, and the other was used to detect the enzyme activity of alanine aminotransferase (ALT) by alanine aminotransferase kit (colorimetric method) (Nanjing Jiancheng Bioengineering Institute).
# hepatitis B virus [4] = experiment: HBV core antigen (HBeAg) in culture supernatant of HepAD38 cells, ELISA; assay type: cell-based; settings: 16µM to 2µM, HepAD38, 24h to 144h, Figure 14
# Protocol: A solvent-only control group (DMF) was also set up. Three replicate wells were set up for all experiments. 500µL of culture supernatant was taken at 24h, 48h, 72h, 96h, and 144h after adding the test article for ELISA to detect HBV core antigen (HBeAg) concentration.
# hepatitis B virus [5] = experiment: HBV genomic DNA replication in HepG2 cells transfected with linear HBV genomic DNA, quantitative PCR of circular HBV DNA; assay type: cell-based, hepatitis B virus (genotype B); settings: 10µM, HepG2, 96 hours, Figure 1
# Protocol: After 96 hours, cells were divided into two groups, with genomic DNA extracted from one. From the other, free DNA was extracted using HIRT extraction, and linear DNA was removed using DNA exonuclease (NEB). Circular HBV DNA and genomic GAPDH were detected by quantitative PCR. The highest value of circular HBV DNA was defined as 100% (n=5).
# 3TC/ETV-resistant HBV = experiment: Mouse venous hypertension model, serum HBsAg by ELISA (Example 13, Figure 17); assay type: in vivo, male C57 mice; settings: 150 mg/day (converted adult dose, 22.8 mg/kg/day in mice), oral gavage, five days
# Text: The specific method was based on the instructions of the ELISA kit.
# hepatitis B virus [6] = experiment: Mouse venous hypertension model (genotype B), HBV genomic DNA in liver by fluorescence quantitative PCR; assay type: in vivo, Wild-type mice (C57/B6); settings: 50 mg/kg/day oral gavage, 11th day after infection, Figure 5
# Text: . On the 11th day after infection, the mice were sacrificed, the livers of the mice were isolated, DpnI was transferred to exclude source DNA, and HBV genomic DNA in the livers of the mice was detected by fluorescence quantitative PCR (n=5).
# B and T cells = experiment: Immune cells in blood of HBV-infected mice, flow cytometry; settings: 4, 8, 16 mg/kg/time, twice a day, oral gavage, day 9, Figure 19
# Protocol: as §1
# On day 9, mice were sacrificed to collect blood stained with flow antibody after fission red. All cells were treated with anti-FcγRIII/ II (purchased from BD Biosciences) in PBS for 30 min. CD3e-FITC (purchased from BD Biosciences). CD4-PE, CD8a-APC-Vio770, and CD34-FITC (GE). CD19-APC, CD11b-PE-Cyanine7, and CD117-efflor 450 (purchased from eBioscience). After staining, the samples were suspended using 500µL PBS and analyzed by BD Aria III flow cytometer.
# hepatitis B virus [7] = experiment: HBsAg in culture supernatant of HBV DNA-transfected HepG2 cells, ELISA; settings: 10µM, HepG2, 96h after transfection, Figure 2
# Protocol: Hepatocyte HepG2 cells with good growth status were seeded in 6-well plates at 10^6 cells/well and, after being left overnight, 2µg of linear HBV viral genomic DNA (genotype B) was transfected into each well using lipofectamine 2000 to establish a viral infection cell model. […] An equal volume of DMSO (1/1000, v/v) was added to the control group. Forty-eight hours after transfection, cells from each well were passaged into one 6cm culture plate. After transfection, HBsAg levels in the culture supernatant were quantified by ELISA 96h.
# Well-grown hepatocyte HepG2 cells 10^6 cells/well were seeded in 6-well plates, and after overnight, 2µg of linear HBV viral genomic DNA (genotype B) was transfected per well using Lipofectamine 2000. […] An equal volume of DMSO (1/1000, v/v) was added to the control group. Forty-eight hours after transfection, cells from each well were passaged into one 6cm culture plate. HBV surface antigen (HBsAg) in the culture medium was detected by ELISA 96h after transfection.
# [8] = test system: subtype A hepatitis B virus; experiment: Mouse venous hypertension model (genotype A), HBeAg in peripheral blood by ELISA; assay type: in vivo, Wild-type mice (C57/B6); settings: twice a day, oral gavage, 9th day after infection, Figure 8
# Protocol: On the 9th day after infection, about 100µl of blood was harvested from each animal, serum was separated, and the concentration of HBeAg in peripheral blood was measured by ELISA.
# hepatitis B virus [9] = experiment: Mouse venous hypertension model (genotype B), HBsAg in peripheral blood by ELISA; assay type: in vivo, Wild-type mice (C57/B6)
# Protocol: . On the 9th day after infection, about 100µl/mouse of blood was harvested from the tail to separate serum, and the concentration of HBsAg in peripheral blood was detected by ELISA. The OD value at 450nm was measured on a microplate reader.
# . On the 9th day after infection, about 100µl of blood was harvested from each animal, serum was separated, and the concentration of HBsAg in peripheral blood was measured by ELISA.
compound,measurement,setting,value
"CC(C)c1ccc2oc3nc(N)c(C(=O)O)cc3c(=O)c2c1 [amlexanox, Amlexanox]",cytotoxicity,"[1]; nine kinds of cells, below the concentration of 50 µM",no obvious cytotoxicity
same,cytotoxicity,"[1]; remaining five cells (other than MKN45, HCT-116, MCF7, Huh7), 100 µM",no significant cytotoxicity
same,HBV surface antigen (HBsAg) in serum,hepatitis B virus [2],could inhibit HBsAg level in transgenic mice
same,enzyme activity of alanine aminotransferase (ALT) in serum,[3],can effectively reduce alanine aminotransferase activity
same,HBV core antigen (HBeAg) concentration in culture supernatant,hepatitis B virus [4],significantly reduce HBsAg level and core antigen level
same,Circular HBV DNA (hepatitis B virus genomic DNA replication),hepatitis B virus [5],inhibits hepatitis B virus genomic DNA replication in cell models with effects comparable to existing clinical drugs
same,HBsAg level in the blood,3TC/ETV-resistant HBV,significantly decreased
same,HBV genomic DNA in the livers of the mice,hepatitis B virus [6],"can significantly inhibit the load of viral DNA, and its effect is not lower than that of clinically used nucleotide-like drugs lamivudine and entecavir"
same,effect on immune cells (B and T cells) in blood,B and T cells,"had an inhibitory effect on both B and T cells, and the inhibitory effect was dose-dependent"
same,HBsAg levels in the culture supernatant,hepatitis B virus [7],"reduces HBsAg levels in cell models, and its effect is superior to that of existing clinical drugs"
same,concentration of HBeAg in peripheral blood,[8]; 16 mg/kg/time,still effective
same,"concentration of HBeAg in peripheral blood, dose-response relationship","[8]; 4, 8 and 16 mg/kg/time",its ability to inhibit hepatitis B virus is enhanced in a mouse model of venous hypertension
same,concentration of HBsAg in peripheral blood,"hepatitis B virus [9]; 50 mg/kg/day oral gavage, 9th day after infection, Figure 3","reduced HBsAg levels in a mouse model of venous hypertension, and its effect is better than that of lamivudine"
same,"dose of significant effect (inhibition of hepatitis B virus, HBsAg)","hepatitis B virus [9]; oral gavage, 9th day after infection, Figure 7",10 to 50 mg/kg
same,"concentration of HBsAg in peripheral blood, dose-response relationship","hepatitis B virus [9]; oral gavage, daily dose as in Figure 7, 9th day after infection",its ability to inhibit the hepatitis B virus in the venous hypertension mouse model is enhanced
